Assay results from PubChem BioAssay (NCI).
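Dose response: 5 concentrations. Exposure: 48 h. Format: 96-well plates. Endpoint: linear interpolation; highest concentration if not reached. At the GI50, growth is halved. TGI: concentration producing complete growth inhibition.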

Key:
Test in all cases: NCI tumour cell line growth inhibition, 48 h
UO-31 renal = tested on: UO-31 renal
U251 CNS = tested on: U251 CNS
K-562 leukemia = tested on: K-562 leukemia
SN12C renal = tested on: SN12C renal
SF-268 CNS = tested on: SF-268 CNS
SK-MEL-2 melanoma = tested on: SK-MEL-2 melanoma
KM12 colon = tested on: KM12 colon
HCT-15 colon = tested on: HCT-15 colon
NCI/ADR-RES ovarian = tested on: NCI/ADR-RES ovarian
MALME-3M melanoma = tested on: MALME-3M melanoma

Row | SMILES | TGI (UO-31 renal) | TGI (U251 CNS) | TGI (K-562 leukemia) | TGI (SN12C renal) | TGI (SF-268 CNS) | TGI (SK-MEL-2 melanoma) | TGI (KM12 colon) | TGI (HCT-15 colon) | TGI (NCI/ADR-RES ovarian) | TGI (MALME-3M melanoma) | GI50 (MALME-3M melanoma) | GI50 (KM12 colon) | GI50 (HCT-15 colon) | GI50 (UO-31 renal) | GI50 (U251 CNS) | GI50 (K-562 leukemia) | GI50 (SN12C renal) | GI50 (SF-268 CNS) | GI50 (SK-MEL-2 melanoma) | GI50 (NCI/ADR-RES ovarian)
1 | CC1CC(c2ccc([N+](=O)[O-])cc2)=Nc2ccccc2S1=O (stereo unspecified) | 26.3 µM | 27.7 µM | 75 µM | > 100 µM | 44.1 µM | > 100 µM | 26.7 µM | 28.1 µM | – | – | – | – | – | – | – | – | – | – | – | –
2 | Cc1ccc(C(=O)N/N=C(\N=Nc2ccccc2)c2ccc(N(CCC#N)CCC#N)cc2C)cc1 | > 100 µM | > 100 µM | > 100 µM | – | 61.7 µM | > 100 µM | > 100 µM | > 100 µM | > 100 µM | – | – | – | – | – | – | – | – | – | – | –
3 | C/C=C1/C(=O)O[C@]23C=C[C@@H]4C(C(=O)OC)=CO[C@H](O[C@@H]12)[C@@H]43 | 6.98 µM | 5.9 µM | 7.93 µM | 4.88 µM | 5.62 µM | 3.76 µM | 6.12 µM | 4.66 µM | 6.37 µM | 5.61 µM | – | – | – | – | – | – | – | – | – | –
4 | COc1cc2c(cc1O)N=C[C@@H]1CCC(O)N1C2=O (mixture of isomers) | 2.79 µM | 1.71 µM | 24.2 µM | 19.1 µM | 6.25 µM | 0.748 µM | 17.9 µM | 6.44 µM | 3.42 µM | 1.42 µM | – | – | – | – | – | – | – | – | – | –
5 | CC(CNc1nc(Nc2ccc(Cl)c(Cl)c2)nc(C(Cl)(Cl)Cl)n1)N(C)C (stereo unspecified) | – | – | – | – | – | – | 3.14 µM | 3.15 µM | – | 3.79 µM | 1.79 µM | 1.7 µM | 1.68 µM | – | – | – | – | – | – | –
6 | O=C1NC(=O)C2(CCc3ccc(N(CCCl)CCCl)cc32)N1 (stereo unspecified) | 48 µM | 33 µM | > 100 µM | > 100 µM | 73.5 µM | 43.4 µM | > 84.1 µM | 49 µM | 40.6 µM | – | – | – | – | – | – | – | – | – | – | –
7 | CCc1ncc(C(C)(O)c2ccccc2)n1Cc1ccccc1 (stereo unspecified) | > 100 µM | > 100 µM | > 100 µM | 60.6 µM | > 100 µM | > 100 µM | > 100 µM | > 100 µM | > 100 µM | > 100 µM | – | – | – | – | – | – | – | – | – | –
8 | COc1ccc2oc3c(ccc[n+]3C)c(=O)c2c1 | > 100 µM | > 100 µM | > 100 µM | > 100 µM | > 100 µM | > 100 µM | > 100 µM | > 100 µM | > 100 µM | > 100 µM | – | – | – | – | – | – | – | – | – | –
9 | CC(=O)Nc1nc(C)c(-c2cc3c(c(S(C)(=O)=O)c2)C(=O)N([C@@H](C)C2CC2)C3)s1 | > 100 µM | > 100 µM | > 100 µM | > 100 µM | > 100 µM | 67.7 µM | > 100 µM | > 100 µM | > 100 µM | > 100 µM | 23.6 µM | 85 µM | 28.2 µM | 24.8 µM | 29.5 µM | 34.2 µM | 28.5 µM | 20.4 µM | 21.9 µM | 53.6 µM
